Experimental findings from paper PMC3952036 (Cellular and molecular life sciences : CMLS, 2014) are described below.

Molecules are shown by their SMILES.

The experiment deals with Flag-DOR (murine DOR tagged with Flag at the N-terminus) (Mus musculus, UniProt P32300).
Flag-DOR (murine DOR tagged with Flag at the N-terminus), sequence (P32300 whole entry): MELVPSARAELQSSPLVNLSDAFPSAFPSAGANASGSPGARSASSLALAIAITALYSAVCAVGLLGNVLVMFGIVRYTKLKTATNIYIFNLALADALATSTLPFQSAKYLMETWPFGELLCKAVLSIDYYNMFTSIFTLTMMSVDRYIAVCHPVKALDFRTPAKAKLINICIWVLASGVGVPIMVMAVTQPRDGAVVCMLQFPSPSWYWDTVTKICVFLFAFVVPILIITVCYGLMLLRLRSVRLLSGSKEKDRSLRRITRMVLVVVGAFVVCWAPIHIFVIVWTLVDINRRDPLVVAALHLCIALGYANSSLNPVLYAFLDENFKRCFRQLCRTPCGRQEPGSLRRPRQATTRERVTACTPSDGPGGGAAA

For `C=CCN1C[C@H](C)N([C@H](c2ccc(C(=O)N(CC)CC)cc2)c2cccc(OC)c2)C[C@H]1C` [SNC-80, (1)-4-[(αR)-α-((2S,5R)-4-allyl-2,5-dimethyl-1-piperazinyl)-3-methoxybenzyl]-N,N-diethylbenzamide], the “log KA ± SEM (M)” value was −6.58 ± 0.43 log M.
